We go through five compounds from PMC12114633, “α-Glucosidase Inhibition Mechanism and Anti-Hyperglycemic Effects of Flavonoids from Astragali Radix and Their Mixture Effects” (Pharmaceuticals, 2025).

In assay [1] the target is α-glucosidase. Conditions: cited from earlier work.
Assay [2] concerns the target T1, Saccharomyces cerevisiae α-glucosidase (Saccharomyces cerevisiae, UniProt P53341).
T1 construct: purchased Shanghai Yuanye Biotechnology Co., Shanghai, China Lot No. M23HS178879 (catalogue number not given)
The experiment in a line: biochemical. Conditions: 5 mM pNPG, PBS pH 6.8, 37 °C. How it is done: (§1) The α-glucosidase inhibitory effects of flavonoids were evaluated as in a previous report with slight modifications (including changes in the concentrations of the enzyme, substrate, and Na2CO3). Briefly, 50 μL of phosphate-buffered saline (PBS, 0.1 M, pH 6.8), the test compound, and α-glucosidase (0.2 U/mL) were preincubated in a 96-well plate at 37 °C for 10 min. The reaction was then initiated by adding 50 μL of 5 mM pNPG as the substrate. Subsequently, the 96-well plate was incubated for an additional 30 min at 37 °C, then 50 μL of 0.2 M Na2CO3 was added to terminate the reaction. Absorbance was measured at under 405 nm.

The target in assay [3] is T2, α-glucosidase (Saccharomyces cerevisiae, UniProt P53341).
T2 construct: purchased Shanghai Yuanye Biotechnology Co., Shanghai, China Lot No. M23HS178879 (catalogue number not given)
The experiment in a line: Inhibitory kinetic analysis (Lineweaver–Burk plot). The class given is biochemical. Conditions: Lineweaver–Burk plots, pNPG 0.31–20 mM. How it is done: The type of inhibition was determined by using the kinetics curve and the Lineweaver–Burk plot. […] These compounds were incubated with α-glucosidase at 37 °C for 30 min. After incubation, various concentrations of pNPG (0.31–20 mM) were added, and absorbance was measured at 405 nm. The Lineweaver–Burk plot was obtained by plotting 1/[S] on the x-axis and 1/v on the y-axis, where [S] represents substrate concentration and v represents the reaction velocity.

Assay [4] concerns the target T2, α-glucosidase. Put plainly: CD spectroscopy, secondary structure of α-glucosidase (BeStSel). Conditions: for β-turn: free enzyme 11.7; for β-sheet: free enzyme 28.8; for random coil: free enzyme 45.2; for α-helix: free enzyme 14.4. How it is done:
CD spectra in the far-UV region (190–250 nm) were scanned by using a CD spectrometer (JASCO-1.5 Tokyo, Japan). […] The slit width was set to 1 nm, and the baseline was calibrated with PBS (phosphate buffered saline). CD spectra were averaged over three scans under a constant nitrogen flow, with the buffer signal subtracted. The results were analyzed using the BeStSel database (https://bestsel.elte.hu/index.php, accessed on 16 May 2025).

Assay [5] deals with T2, α-glucosidase. The experiment in a line: biochemical. The class given is binding. The method, then:
SPR analysis was performed using the Biacore 8K system (GE Healthcare, Uppsala, Sweden). α-Glucosidase (0.05 mg/mL) was fixed on the CM5 sensor chip by an amine coupling kit. Subsequently, various concentrations of the 16 flavonoids dissolved in 5% DMSO were continuously injected onto the surface of α-glucosidase coated surface. After each sample injection, the sensor chip surface was washed and regenerated with running buffer (PBS) at a flow rate of 30 µL/min. According to the 1:1 Langmuir model, the equilibrium dissociation constant (KD) was calculated by the Biacore evaluation software. For sensorgrams without significant kinetic features, the KD values were calculated using the steady-state analysis.

Another assay deals with normal C57BL/6J mice. Put plainly: Oral sucrose test, postprandial blood glucose. The class given is in vivo. Conditions: for Blood glucose levels: 30 min after sucrose 4 g/kg, n = 8, in mmol/L (unit assumed); for Rate of blood glucose reduction: vs model group, 30 min after sucrose. The source says: Male C57BL/6J mice of SPF grade, aged 6–8 weeks and weighing 18–22 g, were obtained from the Experimental Animal Science Department of Peking University. The mice were housed in a controlled environment with a 12:12 light/dark cycle and a constant temperature. They were provided with standard pellet feed and given free access to drinking water. To ensure acclimatization, the mice were allowed to adjust to the diet and housing conditions for one week prior to the experiment. All animal experiments were performed in compliance with the relevant laws and institutional guidelines for the care and use of laboratory animals in China. The experiments were approved by the Laboratory Animal Management and Ethics Committee of Peking University (LA2021443). Additionally, the certification number for the laboratory animal personnel is 1120111300011.
The 16 flavonoids were subsequently evaluated for their potential antihyperglycemic effects by using the oral sucrose test, which is commonly used to evaluate intestinal α-glucosidase inhibition in vivo [62]. Normal C57BL/6J mice were randomly divided into model groups and the 16 flavonoid compound groups (n = 8 per group), respectively. The flavonoids at different concentrations were suspended in 0.5% sodium carboxymethyl cellulose (CMC-Na). […] Fifteen minutes after drug administration, the mice were given a sucrose solution (4 g/kg). Blood samples were collected from the tail vein at 30 min after sucrose loading, and blood glucose levels were measured using an Accu-Chek Performa glucometer (Roche Diagnostics, SN: 79508621393, Shanghai, China). The rate of blood glucose reduction was calculated using the following Formula (4):(4) The rate of blood glucose reduction%=the model blood glucose-the sample blood glucose/the model blood glucose×100%

The target of assay [6] is T2, α-glucosidase. The experiment in a line: Mixture effects of flavonoid combinations on α-glucosidase. Format: biochemical. Conditions: calculated from the dose–response curve. How it is done: as §1
The inhibitory activity of the composition was evaluated using the same method described in Section 3.2. […] The combination index (CI, Formula (3)) was subsequently used to assess the interactions between the compounds [60].(2) Y=Bottom+Top−Bottom/1+10^^((LogIC50−X)×HillSlope)
In Formula (3), (D)j represents the concentration of component j in the mixture needed to achieve an effect of x, while (Dx)j denotes the concentration of component j required to produce the same effect when acting alone. Here, x refers to the inhibition rate produced by the composition, and n indicates the number of individual compounds in the composition.

Setting [7] is: molar ratio 10:1, α-glucosidase 4 μM.
The mark [8] stands for this setting: molar ratio 40:1, α-glucosidase 4 μM.
[9] abbreviates: molar ratio compound:α-glucosidase 10:1, α-glucosidase 4 μM.
Where [10] appears, read: literature values, reference given, read-out: IC50 in References.
Where [11] appears, read: α-glucosidase 0.2 U/mL, read-out: IC50.
Setting [12] is: kinetic model (1:1 Langmuir), read-out: KD.

Like-named read-outs stand apart in the source and are kept apart here.

T1 sequence (P53341 whole entry): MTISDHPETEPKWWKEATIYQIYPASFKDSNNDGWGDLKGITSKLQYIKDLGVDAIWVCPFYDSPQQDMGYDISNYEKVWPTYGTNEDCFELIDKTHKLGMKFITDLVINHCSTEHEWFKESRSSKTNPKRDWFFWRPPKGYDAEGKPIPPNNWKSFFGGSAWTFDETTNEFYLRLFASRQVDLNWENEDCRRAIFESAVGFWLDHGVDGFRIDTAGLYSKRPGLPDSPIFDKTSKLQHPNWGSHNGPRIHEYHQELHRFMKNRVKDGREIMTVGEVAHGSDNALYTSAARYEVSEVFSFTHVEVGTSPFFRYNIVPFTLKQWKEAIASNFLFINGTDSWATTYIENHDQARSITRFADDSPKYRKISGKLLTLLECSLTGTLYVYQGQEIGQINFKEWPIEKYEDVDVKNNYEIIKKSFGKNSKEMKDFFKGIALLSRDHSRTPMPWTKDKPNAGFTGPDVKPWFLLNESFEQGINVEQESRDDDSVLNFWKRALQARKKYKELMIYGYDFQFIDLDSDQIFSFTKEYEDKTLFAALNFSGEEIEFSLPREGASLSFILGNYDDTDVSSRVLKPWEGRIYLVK
T2 sequence (P53341 whole entry): as above

Take `CC(=O)Cc1cc(=O)c2c(C)cc(O)c([C@@H]3O[C@H](CO)[C@@H](O)[C@H](O)[C@H]3OC(=O)/C=C/c3ccc(O)cc3)c2o1` [Aloeresin A, reference compound]: the half-maximal inhibitory concentration (IC50) (as a rule, the concentration that gives 50% inhibition) on α-glucosidase [1] (read-out: IC50) was 11900 µM.

Regarding `O=c1c(-c2ccc(O)cc2)coc2cc(O)ccc12` [C11, daidzein], the IC50 in assay [2] (IC50, α-glucosidase 0.2 U/mL) was 83.7 ± 20.2 µM; at α-glucosidase [1] (setting [10]), 150 µM. Besides, at α-glucosidase [3], the “type of inhibition on α-glucosidase” value is “non-competitive inhibitors”. Moreover, the β-turn at α-glucosidase [4] (setting [7]) amounted to 12.7%; at α-glucosidase [4] (setting [8]) it was 14.3%. For the same compound, the β-sheet at α-glucosidase [4] (setting [7]) was 28.8%; at α-glucosidase [4] (setting [8]) it was 25.5%. Further, the random coil is on record as 40.8% on α-glucosidase [4] (setting [7]) and 45.5% at α-glucosidase [4] (setting [8]). The α-helix on α-glucosidase [4] (setting [8]) worked out at 14.6%; at α-glucosidase [4] (setting [9]), 17.7%. Binding at α-glucosidase [5] was put at a Kd of 20 µM.

Consider `COc1cc(-c2oc3cc(O)cc(O)c3c(=O)c2OC2OC(CO)C(O)C(O)C2O)ccc1O` (centres unmarked) [C14, isorhamnetin-3-O-glucoside], for which the IC50 was 228 ± 34 µM in assay [2] (setting [11]) and 275 µM on α-glucosidase [1] (setting [10]). For the same compound, on α-glucosidase [3], the “type of inhibition on α-glucosidase” value is recorded as “mixed-type inhibitors”. The β-turn is 12.8% on α-glucosidase [4] (setting [7]) and 15.7% on α-glucosidase [4] (setting [8]). Besides, the results for the β-sheet on α-glucosidase [4] (setting [7]) and at α-glucosidase [4] (setting [8]) were 33.7% and 19.8%, respectively. Also, the random coil at α-glucosidase [4] (setting [7]) was 40.4%; at α-glucosidase [4] (setting [8]) it was 56.6%. In addition, the α-helix on α-glucosidase [4] (setting [8]) was found to be 7.80%; at α-glucosidase [4] (setting [9]) it was 13.1%. In addition, at α-glucosidase [5] (setting [12]), the Kd (commonly a measure of binding affinity in units of concentration) came to 383 µM. Also, the Blood glucose levels in the assay on normal C57BL/6J mice (10 mg/kg oral) was 14.84 ± 0.62; with normal C57BL/6J mice (50 mg/kg oral) it was 12.66 ± 0.48; with normal C57BL/6J mice (100 mg/kg oral), 12.19 ± 0.81. In addition, the “Rate of blood glucose reduction” value with normal C57BL/6J mice (10 mg/kg oral) was -2.50%; in the assay with normal C57BL/6J mice (50 mg/kg oral), 12.52%; in the assay on normal C57BL/6J mice (100 mg/kg oral) it was 15.80%.

Consider `COc1ccc2c(c1OC)OC1c3ccc(O[C@@H]4O[C@H](CO)[C@@H](O)[C@H](O)[C@H]4O)cc3OCC21` (some centres unmarked) [C19, astrapterocarpan-3-O-glucoside], for which, in assay [2] (setting [11]), the concentration for half-maximal inhibition (IC50) worked out at 348 ± 32.4 µM. Further, the “type of inhibition on α-glucosidase” value at α-glucosidase [3] is reported as “non-competitive inhibitors”. Moreover, the figures for the β-turn at α-glucosidase [4] (setting [7]) and on α-glucosidase [4] (setting [8]) were 10.7% and 10.2%, respectively. For the same compound, the β-sheet at α-glucosidase [4] (setting [7]) is 26.7%; on α-glucosidase [4] (setting [8]) it was 6.70%. Further, the random coil at α-glucosidase [4] (setting [7]) and on α-glucosidase [4] (setting [8]) was 39.9% throughout. Also, the α-helix at α-glucosidase [4] (setting [8]) is on record as 43.2%; at α-glucosidase [4] (setting [9]) it was 22.6%. Besides, the dissociation constant Kd at α-glucosidase [5] (setting [12]) amounted to 30 µM. Also, the IC05 on α-glucosidase [6] was 82.58 µM. In addition, the Blood glucose levels with normal C57BL/6J mice (1 mg/kg oral) amounted to 14.30 ± 1.16; in the assay with normal C57BL/6J mice (10 mg/kg oral) it was 13.71 ± 0.78; with normal C57BL/6J mice (100 mg/kg oral) it was 13.31 ± 0.58. In addition, the “Rate of blood glucose reduction” value in the assay on normal C57BL/6J mice (1 mg/kg oral) was 7.37%; in the assay with normal C57BL/6J mice (10 mg/kg oral), 11.17%; with normal C57BL/6J mice (100 mg/kg oral) it was 13.77%.

As for aquilarixanthone [reference compound], the IC50 at α-glucosidase [1] (read-out: IC50) was 678 µM.
